Laboratory results reported in PubChem BioAssay AID1963838 (Molecular Pharmacology Branch, DTP, NCI, 2024).

System: 855422-203-R-J1-PDC complex spheroid viability
Assay: Anticancer human tumor 855422-203-R-J1-PDC patient-derived bladder carcinoma cell line growth inhibition [POLQ]
Details: for IC50: curve of first compound; for viability, T/C: stronger effect = lower value
Outline: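 Three-cell-type spheroids modelling solid tumor plus stroma served as the readout system; POL inhibitors were tested individually and in combination, concentration ranges set by clinical Cmax where known.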

[1] = second compound 0.0316 µM, first compound 0.0316 µM
[2] = second compound 0.0316 µM, first compound 0.1 µM
[3] = second compound 0.0316 µM, first compound 0.316 µM
[4] = second compound 0.0316 µM, first compound 1 µM
[5] = second compound 0.0316 µM, first compound 3.16 µM
[6] = second compound 0.0316 µM, first compound 10 µM
[7] = second compound 0.1 µM, first compound 0.0316 µM
[8] = second compound 0.1 µM, first compound 0.1 µM
[9] = second compound 0.1 µM, first compound 0.316 µM
[10] = second compound 0.1 µM, first compound 1 µM
[11] = second compound 0.1 µM, first compound 3.16 µM
[12] = second compound 0.1 µM, first compound 10 µM
[13] = second compound 0.316 µM, first compound 0.0316 µM
[14] = second compound 0.316 µM, first compound 0.1 µM
[15] = second compound 0.316 µM, first compound 0.316 µM
[16] = second compound 0.316 µM, first compound 1 µM
[17] = second compound 0.316 µM, first compound 3.16 µM
[18] = second compound 0.316 µM, first compound 10 µM
[19] = second compound 1 µM, first compound 0.0316 µM
[20] = second compound 1 µM, first compound 0.1 µM
[21] = second compound 1 µM, first compound 0.316 µM
[22] = second compound 1 µM, first compound 1 µM
[23] = second compound 1 µM, first compound 3.16 µM
[24] = second compound 1 µM, first compound 10 µM
[25] = second compound 3.16 µM, first compound 0.0316 µM
[26] = second compound 3.16 µM, first compound 0.1 µM
[27] = second compound 3.16 µM, first compound 0.316 µM
[28] = second compound 3.16 µM, first compound 1 µM
[29] = second compound 3.16 µM, first compound 3.16 µM
[30] = second compound 3.16 µM, first compound 10 µM
[31] = second compound 10 µM, first compound 0.0316 µM
[32] = second compound 10 µM, first compound 0.1 µM
[33] = second compound 10 µM, first compound 0.316 µM
[34] = second compound 10 µM, first compound 1 µM
[35] = second compound 10 µM, first compound 3.16 µM
[36] = second compound 10 µM, first compound 10 µM
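Note: spheroids exposed to compounds for seven days before readout.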

Structure (SMILES): C#Cc1c(F)ccc2cc(O)cc(-c3ncc4c(N5CC6CCC(C5)N6)nc(OCC56CCCN5CC(F)C6)nc4c3F)c12 (stereo unspecified) + Cc1cccc(N(C)C(=O)C2C(O)CCN2c2nc(C)cc(C(F)(F)F)c2C#N)c1
- IC50 (second compound 0.0316 µM): > 10 µM
- IC50 (second compound 0.1 µM): > 10 µM
- IC50 (second compound 0.316 µM): > 10 µM
- IC50 (second compound 1 µM): > 10 µM
- IC50 (second compound 3.16 µM): > 10 µM
- IC50 (second compound 10 µM): > 10 µM
- viability, T/C [1]: 106%
- viability, T/C [2]: 105%
- viability, T/C [3]: 108%
- viability, T/C [4]: 101%
- viability, T/C [5]: 105%
- viability, T/C [6]: 103%
- viability, T/C [7]: 103%
- viability, T/C [8]: 103%
- viability, T/C [9]: 102%
- viability, T/C [10]: 96.7%
- viability, T/C [11]: 103%
- viability, T/C [12]: 103%
- viability, T/C [13]: 106%
- viability, T/C [14]: 103%
- viability, T/C [15]: 99.4%
- viability, T/C [16]: 97.4%
- viability, T/C [17]: 114%
- viability, T/C [18]: 110%
- viability, T/C [19]: 109%
- viability, T/C [20]: 99.7%
- viability, T/C [21]: 106%
- viability, T/C [22]: 96.8%
- viability, T/C [23]: 111%
- viability, T/C [24]: 113%
- viability, T/C [25]: 101%
- viability, T/C [26]: 92.3%
- viability, T/C [27]: 97.5%
- viability, T/C [28]: 98.3%
- viability, T/C [29]: 107%
- viability, T/C [30]: 112%
- viability, T/C [31]: 102%
- viability, T/C [32]: 107%
- viability, T/C [33]: 112%
- viability, T/C [34]: 94.3%
- viability, T/C [35]: 102%
- viability, T/C [36]: 100%

Structure (SMILES): Cn1ncnc1[C@H]1c2n[nH]c(=O)c3cc(F)cc(c23)N[C@@H]1c1ccc(F)cc1 + Cc1cccc(N(C)C(=O)C2C(O)CCN2c2nc(C)cc(C(F)(F)F)c2C#N)c1
- IC50 (second compound 0.0316 µM): > 0.1 µM
- IC50 (second compound 0.1 µM): > 0.1 µM
- IC50 (second compound 0.316 µM): > 0.1 µM
- IC50 (second compound 1 µM): > 0.1 µM
- IC50 (second compound 3.16 µM): > 0.1 µM
- IC50 (second compound 10 µM): > 0.1 µM
- viability, T/C (second compound 0.0316 µM, first compound 0.000316 µM): 114%
- viability, T/C (second compound 0.0316 µM, first compound 0.001 µM): 107%
- viability, T/C (second compound 0.0316 µM, first compound 0.00316 µM): 115%
- viability, T/C (second compound 0.0316 µM, first compound 0.01 µM): 108%
- viability, T/C [1]: 108%
- viability, T/C [2]: 103%
- viability, T/C (second compound 0.1 µM, first compound 0.000316 µM): 102%
- viability, T/C (second compound 0.1 µM, first compound 0.001 µM): 103%
- viability, T/C (second compound 0.1 µM, first compound 0.00316 µM): 98.5%
- viability, T/C (second compound 0.1 µM, first compound 0.01 µM): 100%
- viability, T/C [7]: 105%
- viability, T/C [8]: 107%
- viability, T/C (second compound 0.316 µM, first compound 0.000316 µM): 108%
- viability, T/C (second compound 0.316 µM, first compound 0.001 µM): 104%
- viability, T/C (second compound 0.316 µM, first compound 0.00316 µM): 116%
- viability, T/C (second compound 0.316 µM, first compound 0.01 µM): 104%
- viability, T/C [13]: 116%
- viability, T/C [14]: 104%
- viability, T/C (second compound 1 µM, first compound 0.000316 µM): 100%
- viability, T/C (second compound 1 µM, first compound 0.001 µM): 109%
- viability, T/C (second compound 1 µM, first compound 0.00316 µM): 112%
- viability, T/C (second compound 1 µM, first compound 0.01 µM): 102%
- viability, T/C [19]: 104%
- viability, T/C [20]: 97.3%
- viability, T/C (second compound 3.16 µM, first compound 0.000316 µM): 98.6%
- viability, T/C (second compound 3.16 µM, first compound 0.001 µM): 98%
- viability, T/C (second compound 3.16 µM, first compound 0.00316 µM): 96.4%
- viability, T/C (second compound 3.16 µM, first compound 0.01 µM): 113%
- viability, T/C [25]: 113%
- viability, T/C [26]: 104%
- viability, T/C (second compound 10 µM, first compound 0.000316 µM): 109%
- viability, T/C (second compound 10 µM, first compound 0.001 µM): 103%
- viability, T/C (second compound 10 µM, first compound 0.00316 µM): 94.4%
- viability, T/C (second compound 10 µM, first compound 0.01 µM): 100%
- viability, T/C [31]: 111%
- viability, T/C [32]: 99.2%

Structure (SMILES): CCc1cc2c(N3CCc4c(cc(Cn5ccnc5)cc4-c4cn(C)nc4C(F)(F)F)C3=O)ccnc2c(OC)n1 + COC1C(OC(N)=O)C(O)C(Oc2ccc3c(O)c(NC(=O)c4ccc(O)c(CC=C(C)C)c4)c(=O)oc3c2C)OC1(C)C
- IC50 (second compound 0.0316 µM): 4.02 µM
- IC50 (second compound 0.1 µM): 3.41 µM
- IC50 (second compound 0.316 µM): 2.73 µM
- IC50 (second compound 1 µM): 2.6 µM
- IC50 (second compound 3.16 µM): 2.05 µM
- IC50 (second compound 10 µM): 2.22 µM
- viability, T/C [1]: 83.6%
- viability, T/C [2]: 95%
- viability, T/C [3]: 83.4%
- viability, T/C [4]: 69.5%
- viability, T/C [5]: 55.9%
- viability, T/C [6]: 34.5%
- viability, T/C [7]: 88.2%
- viability, T/C [8]: 82.8%
- viability, T/C [9]: 84.1%
- viability, T/C [10]: 66.8%
- viability, T/C [11]: 52.6%
- viability, T/C [12]: 28.5%
- viability, T/C [13]: 93.3%
- viability, T/C [14]: 80.3%
- viability, T/C [15]: 93.2%
- viability, T/C [16]: 75.1%
- viability, T/C [17]: 46.7%
- viability, T/C [18]: 31%
- viability, T/C [19]: 87.9%
- viability, T/C [20]: 76.9%
- viability, T/C [21]: 71.2%
- viability, T/C [22]: 65.1%
- viability, T/C [23]: 46.6%
- viability, T/C [24]: 28.6%
- viability, T/C [25]: 89.5%
- viability, T/C [26]: 90%
- viability, T/C [27]: 68.9%
- viability, T/C [28]: 67.3%
- viability, T/C [29]: 40%
- viability, T/C [30]: 28.1%
- viability, T/C [31]: 99.3%
- viability, T/C [32]: 76%
- viability, T/C [33]: 80.3%
- viability, T/C [34]: 72.9%
- viability, T/C [35]: 39.3%
- viability, T/C [36]: 31.9%
